According to article doi:10.1101/2024.03.04.583282v1 (biorxiv, 2024):

What was measured:
NATA2Δ = NATA2Δ (Arabidopsis thaliana, UniProt Q9ZV06); assay: isothermal titration calorimetry; type: binding
NATA1Δ = NATA1Δ (Arabidopsis thaliana, UniProt Q9ZV05); assay: isothermal titration calorimetry; type: binding
NATA1Δ, sequence (Q9ZV05 19-228, stated change not applied): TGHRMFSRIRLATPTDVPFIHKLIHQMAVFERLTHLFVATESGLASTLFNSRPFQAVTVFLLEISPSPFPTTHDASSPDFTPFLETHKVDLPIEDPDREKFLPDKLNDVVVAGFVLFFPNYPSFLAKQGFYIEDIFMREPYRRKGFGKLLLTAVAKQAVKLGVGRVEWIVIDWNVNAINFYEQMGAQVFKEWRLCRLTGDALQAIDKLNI

NATA2Δ, sequence (Q9ZV06 30-236, stated change not applied): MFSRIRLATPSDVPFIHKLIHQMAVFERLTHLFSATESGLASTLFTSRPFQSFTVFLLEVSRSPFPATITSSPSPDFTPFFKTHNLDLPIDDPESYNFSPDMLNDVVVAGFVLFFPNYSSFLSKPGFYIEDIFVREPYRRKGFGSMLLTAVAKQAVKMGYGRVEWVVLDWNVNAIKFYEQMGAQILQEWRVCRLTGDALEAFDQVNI

A Kd (NATA2Δ) of about 10 µM and a Kd (NATA1Δ) of about 10 µM were found for `CC(=O)SCCNC(=O)CCNC(=O)[C@H](O)C(C)(C)COP(=O)(O)OP(=O)(O)OC[C@H]1O[C@@H](n2cnc3c(N)ncnc32)[C@H](O)[C@@H]1OP(=O)(O)O` [acCoA] in this work.
